For 37 compounds, IC50 results are on record in patent US9856216B2, “Compounds as TNIK, IKKε and TBK1 inhibitors and pharmaceutical composition comprising same” (GREEN CROSS CORPORATION, priority 2015, dated 2018).

Structures can show the parent of a compound that is named as a salt.

The target in this assay is T1, TNIK (Homo sapiens, UniProt Q9UKE5).
T1 construct: purchased Promega V4158
Description: ADP-Glo Kinase Assay, inhibition activity on TNIK. It is filed as biochemical. The conditions noted are these: read-out: TNIK. The protocol:
The inhibition activities on TNIK, IKKε and TBK1 were measured by a luminometer, TNIK/IKKε/TBK1 Kinase Enzyme System (Promega, Ca# V4158; Invitrogen, PR8031B, Promega, Ca# V3991) and ADP-Glo Kinase Assay using ADP-Glo™ Kinase Analysis Kit (Promega, Ca# V9101) and a kinase reaction buffer [40 mM Tris(pH 7.5), 20 mM MgCl2, 0.1 mg/mL BSA] in accordance with the manufacturer's protocol.
A general note: ADP-Glo first removes unused ATP, then detects ADP through luciferase.

T1 sequence (Q9UKE5 1-367 limits assumed): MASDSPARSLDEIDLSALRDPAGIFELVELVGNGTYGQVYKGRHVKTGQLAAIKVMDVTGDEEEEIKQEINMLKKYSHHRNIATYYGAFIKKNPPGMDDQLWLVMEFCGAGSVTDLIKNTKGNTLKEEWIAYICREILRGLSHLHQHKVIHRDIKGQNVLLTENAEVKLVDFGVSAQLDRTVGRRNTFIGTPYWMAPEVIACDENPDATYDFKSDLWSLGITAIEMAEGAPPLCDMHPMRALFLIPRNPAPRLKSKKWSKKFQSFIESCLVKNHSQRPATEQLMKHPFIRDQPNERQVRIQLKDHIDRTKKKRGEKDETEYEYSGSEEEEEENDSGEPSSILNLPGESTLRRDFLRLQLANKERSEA

As to `O=C(Nc1ccc(-c2ccco2)c2c1C(=O)NC2)c1ccc(NCCN2CCCCCC2)cc1` [Example 293, 4-((2-(Azepan-1-yl)ethyl)amino)-N-(7-(furan-2-yl)-3-oxoisoindolin-4-yl)benzamide], the IC50 turned out to be 0.48 µM.
Consider `CN1CCN(CCNc2ccc(C(=O)Nc3ccc(-c4ccco4)c4c3C(=O)NC4)cc2)CC1` [Example 294, N-(7-(furan-2-yl)-3-oxoisoindolin-4-yl)-4-((2-(4-methylpiperazin-1-yl)ethyl)amino)benzamide], for which the IC50 came out at 0.23 µM.
The result for `CN1CCN(CCCNc2ccc(C(=O)Nc3ccc(-c4ccco4)c4c3C(=O)NC4)cc2)CC1` [Example 295, N-(7-(furan-2-yl)-3-oxoisoindolin-4-yl)-4-((3-(4-methylpiperazin-1-yl)propyl)amino)benzamide] reads 0.52 µM; that for `COc1cccc(-c2ccc(NC(=O)c3ccc(NCCCN4CCOCC4)cc3)c3c2CNC3=O)c1OC` [Example 296, N-(7-(2,3-dimethoxyphenyl)-3-oxoisoindolin-4-yl)-4-((3-morpholinopropyl)amino)benzamide], 0.085 µM; that for `COc1cccc(-c2ccc(NC(=O)c3ccc(NCCN4CCOCC4)cc3)c3c2CNC3=O)c1OC` [Example 297, N-(7-(2,3-dimethoxyphenyl)-3-oxoisoindolin-4-yl)-4-((2-morpholinoethyl)amino)benzamide], 0.075 µM.
With `COc1cccc(-c2ccc(NC(=O)c3ccc(NCCN4CCCCC4)cc3)c3c2CNC3=O)c1OC` [Example 298, N-(7-(2,3-dimethoxyphenyl)-3-oxoisoindolin-4-yl)-4-((2-(piperidin-1-yl)ethyl)amino)benzamide], the IC50 amounted to 0.078 µM.
For the compound `COc1cccc(-c2ccc(NC(=O)c3ccc(NCCN4CCCC4)cc3)c3c2CNC3=O)c1OC` [Example 299, N-(7-(2,3-dimethoxyphenyl)-3-oxoisoindolin-4-yl)-4-((2-(pyrrolidin-1-yl)ethyl)amino)benzamide], the IC50 amounted to 0.05 µM.
As to `COCCNc1ccc(C(=O)Nc2ccc(-c3cccc(OC)c3OC)c3c2C(=O)NC3)cc1` [Example 300, N-(7-(2,3-dimethoxyphenyl)-3-oxoisoindolin-4-yl)-4-((2-methoxyethyl)amino)benzamide], the IC50 was determined as 0.11 µM.
As for `COc1cccc(-c2ccc(NC(=O)c3ccc(NCCN(C)C)cc3)c3c2CNC3=O)c1OC` [Example 301, N-(7-(2,3-dimethoxyphenyl)-3-oxoisoindolin-4-yl)-4-((2-(dimethylamino)ethyl)amino)benzamide], the IC50 was determined as 0.1 µM.
Take `COc1ccccc1-c1ccc(NC(=O)c2ccc(NCCCN3CCCC3)cc2)c2c1CNC2=O` [Example 302, N-(7-(2-methoxyphenyl)-3-oxoisoindolin-4-yl)-4-((3-(pyrrolidin-1-yl)propyl)amino)benzamide]: the IC50 worked out at 0.16 µM.
The result for `COc1ccccc1-c1ccc(NC(=O)c2ccc(NCCN3CCCC3)cc2)c2c1CNC2=O` [Example 303, N-(7-(2-methoxyphenyl)-3-oxoisoindolin-4-yl)-4-((2-(pyrrolidin-1-yl)ethyl)amino)benzamide hydrochloride] reads 0.3 µM; that for `COc1cccc(-c2ccc(NC(=O)c3ccc(NCCN4CCCC4)cc3)c3c2CNC3=O)c1OC` [Example 304, N-(7-(2,3-dimethoxyphenyl)-3-oxoisoindolin-4-yl)-4-((2-(pyrrolidin-1-yl)ethyl)amino)benzamide hydrochloride], 0.073 µM.
To `COc1ccccc1-c1ccc(NC(=O)c2ccc(NCCN(C)C)cc2)c2c1CNC2=O` [Example 305, 4-((2-(Dimethylamino)ethyl)amino)-N-(7-(2-methoxyphenyl)-3-oxoisoindolin-4-yl)benzamide] belongs 0.2 µM; to `COc1cccc(-c2ccc(NC(=O)c3ccc(NCCCN(C)C)cc3)c3c2CNC3=O)c1OC` [Example 306, N-(7-(2,3-dimethoxyphenyl)-3-oxoisoindolin-4-yl)-4-((3-(dimethylamino)propyl)amino)benzamide], 0.074 µM.
Consider `COc1ccccc1-c1ccc(NC(=O)c2ccc(NCCCN3CCCCC3)cc2)c2c1CNC2=O` [Example 307, N-(7-(2-methoxyphenyl)-3-oxoisoindolin-4-yl)-4-((3-(piperidin-1-yl)propyl)amino)benzamide], for which the IC50 stood at 0.19 µM.
To `COc1cccc(-c2ccc(NC(=O)c3ccc(NCCCN4CCCCC4)cc3)c3c2CNC3=O)c1OC` [Example 308, N-(7-(2,3-dimethoxyphenyl)-3-oxoisoindolin-4-yl)-4-((3-(piperidin-1-yl)propyl)amino)benzamide] belongs 0.053 µM.
To `Cc1cc(NCCN2CCCC2)ccc1C(=O)Nc1ccc(-c2ccccc2)c2c1C(=O)NC2` [Example 309, 2-Methyl-N-(3-oxo-7-phenylisoindolin-4-yl)-4-((2-(pyrrolidin-1-yl)ethyl)amino)benzamide] belongs 4.82 µM; to `COCCCNc1ccc(C(=O)Nc2ccc(-c3cccnc3OC)c3c2C(=O)NC3)cc1` [Example 310, 4-((3-Methoxypropyl)amino)-N-(7-(2-methoxypyridin-3-yl)-3-oxoisoindolin-4-yl)benzamide], 0.39 µM; to `COc1cccc(-c2ccc(NC(=O)c3ccc(NCCO)cc3)c3c2CNC3=O)c1OC` [Example 311, N-(7-(2,3-dimethoxyphenyl)-3-oxoisoindolin-4-yl)-4-((2-hydroxyethyl)amino)benzamide], 0.052 µM.
To `COc1cccc(-c2ccc(NC(=O)c3ccc(N4CCOCC4)cc3)c3c2CNC3=O)c1OC` [Example 312, N-(7-(2,3-dimethoxyphenyl)-3-oxoisoindolin-4-yl)-4-morpholinobenzamide] belongs 0.73 µM; to `COc1c(F)cccc1-c1ccc(NC(=O)c2ccc(NCCN3CCCC3)cc2)c2c1CNC2=O` [Example 313, N-(7-(3-fluoro-2-methoxyphenyl)-3-oxoisoindolin-4-yl)-4-((2-(pyrrolidin-1-yl)ethyl)amino)benzamide], 0.45 µM; to `COc1cccc(-c2ccc(NC(=O)c3ccc(NCCN4CCN(C)CC4)cc3)c3c2CNC3=O)c1OC` [Example 314, N-(7-(2,3-dimethoxyphenyl)-3-oxoisoindolin-4-yl)-4-((2-(4-methylpiperazin-1-yl)ethyl)amino)benzamide], 0.086 µM.
Regarding `COc1cccc(-c2ccc(NC(=O)c3ccc(NCCN)cc3)c3c2CNC3=O)c1OC` [Example 315, 4-((2-Aminoethyl)amino)-N-(7-(2,3-dimethoxyphenyl)-3-oxoisoindolin-4-yl)benzamide], the IC50 was determined as 0.037 µM.
`COc1cccc(-c2ccc(NC(=O)c3ccc(NCCCN4CCN(C)CC4)cc3)c3c2CNC3=O)c1OC` [Example 316, N-(7-(2,3-dimethoxyphenyl)-3-oxoisoindolin-4-yl)-4-((3-(4-methylpiperazin-1-yl)propyl)amino)benzamide]: the IC50 was 0.057 µM.
With `O=C(Nc1ccc(-c2ccccc2)c2c1C(=O)NC2)c1ccc(NCCN2CCCC2)cc1` [Example 317, N-(3-oxo-7-phenylisoindolin-4-yl)-4-((2-(pyrrolidin-1-yl)ethyl)amino)benzamide], the IC50 is 0.36 µM.
To `COc1ccccc1-c1ccc(NC(=O)c2ccc(NCCN3CCCC3)cc2)c2c1CNC2=O` [Example 318, N-(7-(2-methoxyphenyl)-3-oxoisoindolin-4-yl)-4-((2-(pyrrolidin-1-yl)ethyl)amino)benzamide] belongs 0.26 µM.
In the case of `CN1CCN(c2ccc(C(=O)Nc3ccc(-c4ccccc4)c4c3C(=O)NC4)cc2)CC1` [Example 319, 4-(4-Methylpiperazin-1-yl)-N-(3-oxo-7-phenylisoindolin-4-yl)benzamide], the IC50 was found to be 2.7 µM.
In the case of `O=C(Nc1ccc(-c2ccccc2)c2c1C(=O)NC2)c1ccc(N2CCOCC2)cc1` [Example 320, 4-Morpholino-N-(3-oxo-7-phenylisoindolin-4-yl)benzamide], the IC50 amounted to 8.8 µM.
As to `COCCNc1ccc(C(=O)Nc2ccc(-c3ccccc3)c3c2C(=O)NC3)cc1` [Example 321, 4-((2-Methoxyethyl)amino)-N-(3-oxo-7-phenylisoindolin-4-yl) benzamide], the IC50 worked out at 0.5 µM.
As for `O=C(Nc1ccc(-c2ccccc2)c2c1C(=O)NC2)c1ccc(NCCN2CCOCC2)cc1` [Example 322, 4-((2-Morpholinoethyl)amino)-N-(3-oxo-7-phenylisoindolin-4-yl)benzamide], the IC50 amounted to 0.34 µM.
With `COc1ccccc1-c1ccc(NC(=O)c2ccc(N3CCOCC3)cc2)c2c1CNC2=O` [Example 323, N-(7-(2-methoxyphenyl)-3-oxoisoindolin-4-yl)-4-morpholino benzamide], the IC50 came to 0.37 µM.
The result for `COCCNc1ccc(C(=O)Nc2ccc(-c3ccccc3OC)c3c2C(=O)NC3)cc1` [Example 324, 4-((2-Methoxyethyl)amino)-N-(7-(2-methoxyphenyl)-3-oxoisoindolin-4-yl)benzamide] reads 0.3 µM.
As for `COc1ccccc1-c1ccc(NC(=O)c2ccc(N3CCN(C)CC3)cc2)c2c1CNC2=O` [Example 325, N-(7-(2-methoxyphenyl)-3-oxoisoindolin-4-yl)-4-(4-methylpiperazin-1-yl)benzamide], the IC50 was 0.37 µM.
Take `COc1ccccc1-c1ccc(NC(=O)c2ccc(NCCN3CCOCC3)cc2)c2c1CNC2=O` [Example 326]: the IC50 worked out at 0.093 µM.
To `O=C(Nc1ccc(-c2ccccc2)c2c1C(=O)NC2)c1ccc(NCCCN2CCOCC2)cc1` [Example 327, 4-((3-Morpholinopropyl)amino)-N-(3-oxo-7-phenylisoindolin-4-yl)benzamide] belongs 0.7 µM; to `COc1ccccc1-c1ccc(NC(=O)c2ccc(NCCCN3CCOCC3)cc2)c2c1CNC2=O` [Example 328], 0.4 µM; to `CN1CCN(CCCNc2ccc(C(=O)Nc3ccc(-c4ccccc4)c4c3C(=O)NC4)cc2)CC1` [Example 329, 4-((3-(4-Methylpiperazin-1-yl)propyl)amino)-N-(3-oxo-7-phenylisoindolin-4-yl)benzamide], 0.44 µM.
